Values of other authors, collected in patent publication US20120100040A1, “COMPOSITION FOR S[…]” (Bakteriefritt AS, priority 2009, published 2012).

Details: rat, orally

With `CS(C)(=O)=O` [dimethylsulfone] as the molecule, how does the LD50 read?
The LD50 was over 5000 mg/kg.
